Source: PubChem BioAssay AID194 (DTP/NCI, 2004)
Values joined by “and” are separate entries in the source; they are usually repeats but may differ in a detail not shown here. Equal values may be shown once. Results filed as inconclusive are left out.

Test system: BDF1 mice, B16 melanoma s.c., survival/tumor T/C
Test: NCI In Vivo Anticancer Drug Screen. Data for tumor model B16 Melanoma (subcutaneous) in B6D2F1 (BDF1) mice
Procedure: The antitumor activity of compounds was measured in mice bearing transplantable tumors. Survival or tumor size were measured and the results are expressed as the measurement made in the treated group (T) divided by the measurement made in the vehicle treated control group (C). The tumor model used in this assay is B16 Melanoma (subcutaneous) in B6D2F1 (BDF1) mice

SMILES: Cc1c(N)nc(C(CC(N)=O)NCC(N)C(N)=O)nc1C(=O)NC(C(=O)NC(C)C(O)C(C)C(=O)NC(C(=O)NCCc1nc(-c2nc(C(=O)NCCCNC(C)c3ccccc3)cs2)cs1)C(C)O)C(OC1OC(CO)C(O)C(O)C1OC1OC(CO)C(O)C(OC(N)=O)C1O)c1cnc[nH]1 (stereo not drawn)
- T/C (endpoint: median survival time, dose: 0.13 mg/kg/injection, schedule: Q01DX010 (ip), vehicle: water, higher = longer survival): 97 % of control
- T/C (endpoint: median survival time, dose: 0.25 mg/kg/injection, schedule: Q01DX009 (ip), vehicle: water, higher = longer survival): 105 % of control and 120 % of control
- T/C (endpoint: median survival time, dose: 0.25 mg/kg/injection, schedule: Q01DX010 (ip), vehicle: water, higher = longer survival): 97 % of control
- T/C (endpoint: median survival time, dose: 0.5 mg/kg/injection, schedule: Q01DX009 (ip), vehicle: water, higher = longer survival): 100 % of control
- T/C (endpoint: median survival time, dose: 0.5 mg/kg/injection, schedule: Q01DX010 (ip), vehicle: water, higher = longer survival): 124 % of control
- T/C (endpoint: median survival time, dose: 1.0 mg/kg/injection, schedule: Q01DX009 (ip), vehicle: water, higher = longer survival): 184 % of control
- T/C (endpoint: median survival time, dose: 1.0 mg/kg/injection, schedule: Q01DX010 (ip), vehicle: water, higher = longer survival): 112 % of control
- T/C (endpoint: median survival time, dose: 2.0 mg/kg/injection, schedule: Q01DX010 (ip), vehicle: water, higher = longer survival): 112 % of control
- T/C (endpoint: median survival time, dose: 4.0 mg/kg/injection, schedule: Q01DX010 (ip), vehicle: water, higher = longer survival): 98 % of control
- T/C (endpoint: median survival time, dose: 8.0 mg/kg/injection, schedule: Q01DX009 (ip), vehicle: water, higher = longer survival): 106 % of control

SMILES: Cc1[nH]nc(-c2ccon2)c1N=O
- T/C (endpoint: median survival time, dose: 12.5 mg/kg/injection, schedule: Q01DX009 (ip), vehicle: saline with Tween-80, higher = longer survival): 91 % of control
- T/C (endpoint: median survival time, dose: 25.0 mg/kg/injection, schedule: Q01DX009 (ip), vehicle: saline with Tween-80, higher = longer survival): 96 % of control
- T/C (endpoint: median survival time, dose: 50.0 mg/kg/injection, schedule: Q01DX009 (ip), vehicle: saline with Tween-80, higher = longer survival): 100 % of control
- T/C (endpoint: median survival time, dose: 100.0 mg/kg/injection, schedule: Q01DX009 (ip), vehicle: saline with Tween-80, higher = longer survival): 87 % of control

SMILES: CC1(C)N=C(N)N=C(N)N1c1ccc(OCCCNC(=O)Nc2cccc(S(=O)(=O)F)c2)c(Cl)c1
- T/C (endpoint: median survival time, dose: 50.0 mg/kg/injection, schedule: Q01DX009 (ip), vehicle: saline, higher = longer survival): 115 % of control
- T/C (endpoint: median survival time, dose: 100.0 mg/kg/injection, schedule: Q01DX009 (ip), vehicle: saline, higher = longer survival): 91 % of control

SMILES: Nc1ccc(N=Nc2ccccc2)c(N)c1
- T/C (endpoint: median survival time, dose: 50.0 mg/kg/injection, schedule: Q01DX009 (ip), vehicle: Klucel (hydroxypropylcellulose) (HPC), higher = longer survival): 91 % of control
- T/C (endpoint: median survival time, dose: 100.0 mg/kg/injection, schedule: Q01DX009 (ip), vehicle: Klucel (hydroxypropylcellulose) (HPC), higher = longer survival): 106 % of control

SMILES: COc1cccc2c1C(=O)c1c(O)c3c(c(O)c1C2=O)C[C@@](O)(C(C)=O)C[C@@H]3OC1CC(N)C(O)C(C)O1 (stereo partly drawn)
- T/C (endpoint: median survival time, dose: 0.12 mg/kg/injection, schedule: Q01DX009 (ip), vehicle: saline, higher = longer survival): 87 % of control and 105 % of control
- T/C (endpoint: median tumor weight (est.), dose: 0.12 mg/kg/injection, schedule: Q01DX009 (ip), vehicle: saline, higher = larger tumour): 64 % of control
- T/C (endpoint: median tumor weight (est.), dose: 0.25 mg/kg/injection, schedule: Q01DX009 (ip), vehicle: saline, higher = larger tumour): 86 % of control and 100 % of control
- T/C (endpoint: median tumor weight (est.), dose: 0.5 mg/kg/injection, schedule: Q01DX009 (ip), vehicle: saline, higher = larger tumour): 55 % of control

SMILES: COC1C(O)C(C)OC(OC2C(Oc3cccc4c(O)c5c(=O)oc6ccc(C)c7c(=O)oc(c34)c5c67)OC(C)C(O)C2O)C1O (stereo not drawn)
- T/C (endpoint: median survival time, dose: 6.25 mg/kg/injection, schedule: Q01DX009 (ip), vehicle: other, higher = longer survival): 95 % of control
- T/C (endpoint: median survival time, dose: 12.5 mg/kg/injection, schedule: Q01DX009 (ip), vehicle: other, higher = longer survival): 104 % of control
- T/C (endpoint: median survival time, dose: 25.0 mg/kg/injection, schedule: Q01DX009 (ip), vehicle: other, higher = longer survival): 100 % of control
- T/C (endpoint: median survival time, dose: 50.0 mg/kg/injection, schedule: Q01DX009 (ip), vehicle: other, higher = longer survival): 101 % of control

SMILES: CCOC(=O)C(CC(C)C)NC(=O)C(Cc1ccc(N(CCCl)CCCl)cc1)NC(C)=O (stereo not drawn)
- T/C (endpoint: median survival time, dose: 1.0 mg/kg/injection, schedule: Q01DX009 (ip), vehicle: other, higher = longer survival): 91 % of control
- T/C (endpoint: median survival time, dose: 2.0 mg/kg/injection, schedule: Q01DX009 (ip), vehicle: other, higher = longer survival): 103 % of control
- T/C (endpoint: median survival time, dose: 4.0 mg/kg/injection, schedule: Q01DX009 (ip), vehicle: other, higher = longer survival): 97 % of control
- T/C (endpoint: median survival time, dose: 16.0 mg/kg/injection, schedule: Q01DX009 (ip), vehicle: other, higher = longer survival): 89 % of control

SMILES: O=NN(CCF)C(=O)N[C@H]1CCCC[C@H]1O
- T/C (endpoint: median survival time, dose: 5.18 mg/kg/injection, schedule: Q01DX007 (ip), vehicle: water, higher = longer survival): 68 % of control
- T/C (endpoint: median survival time, dose: 8.64 mg/kg/injection, schedule: Q01DX007 (ip), vehicle: water, higher = longer survival): 105 % of control
- T/C (endpoint: median survival time, dose: 14.4 mg/kg/injection, schedule: Q01DX007 (ip), vehicle: water, higher = longer survival): 121 % of control
